The values below come from patent publication US20260097037A1, “FUSED RING COMPOUND HAVING GLP-1 RECEPTOR AGONIST EFFECT” (Shionogi & Co., Ltd., priority 2022, published 2026).

Usually Emax stands for the maximal effect, on the per cent scale that the assay sets. Usually pEC50 stands for the negative decadic logarithm of the EC50, by convention in mol/L. High values mean a low EC50, low ones a high EC50.

pEC50: −log10 of the molar value.

This assay addresses T1, Human GLP-1 receptor stably expressing cells (hGLP-1R/CHO-K1 cells) (Homo sapiens, UniProt P43220).
T1 construct: expressed in transfected cells
Nature of the assay: Measurement of GLP-1 receptor agonist activity (cAMP assay). The format is cell-based. To be noted: for Emax: CHO-K1, maximum effect, cAMP with 2 nM human GLP-1 (7-36) = 100%, DMSO only = 0%, read-out: Emax; for pEC50: increase in cAMP concentration in hGLP-1R/CHO-K1 cells, 37° C. 1 hour. On the procedure:
Test Example 1: Measurement of GLP-1 Receptor Agonist Activity
Human GLP-1 receptor stably expressing cells (hGLP-1R/CHO-K1 cells) are cultured in an a-MEM medium (Sigma) containing 10% FBS (Hyclone), 2% GlutaMAX (Gibco), 1% G418 (Nacalai Tesque), and 1% Penicillin-Streptomycin Mixed Solution (Sigma) at 37° C. under 5% CO2 conditions, and recovered by treating a 10 fold diluted 5.0 g/1-trypsin/5.3 mmol/1-EDTA solution (Nacalai Tesque) and cryopreserved.
A DMSO solution containing the compound of the present invention or human GLP-1 (7-36) (Phoenix Pharmaceuticals) is dispensed into a 384-well microplate (Greiner) at 62.5 nL/well, and in addition, 400 μM Forskolin (Nacalai Tesque) is dispensed therein at 7.5 nL/well. Subsequently, the frozen GLP-1 R/CHO-K1 cells are thawed in a thermostatic bath at 37° C., suspended in HBSS buffer (GIBCO) containing 0.1% BSA (Sigma), 20 mM HEPES, 0.1 mM IBMX (Sigma), and 0.2 mM RO20-1724 (Calbiochem) at 2×10^4 cells/mL, and the cell suspension is added at 6 μL/well. The solution was incubated at 37° C. for 1 hour and intracellular cAMP concentration is measured using cAMP Gs dynamic kit (Cisbio) according to the protocol attached to the product. Specifically, a cAMP-d2/Anti-cAMP-Cryptate (1/1) mixture solution is added in a total amount of 6 μL/well, and is incubated at room temperature for 1 hour, and then, time-resolved fluorescence is measured using PHERAstar (BMG Labtech).
Assuming that the cAMP concentration when human GLP-1 (7-36) is dispensed to a final concentration of 2 nM is 100% and the cAMP concentration when only DMSO is dispensed is 0%, the 50% effective concentration (EC50) and the maximum effect (Emax) of the compound of the present invention are calculated using an increase in the cAMP concentration as an index, using TIBCO Spotfire (TIBCO Software). The dilution concentration or the dilution solvent are changed as necessary.
The compounds of the present invention were tested essentially as described above.
Background: Cyclic AMP is a second messenger, typically raised through Gs and lowered through Gi signalling.

T1 sequence (P43220 24-463): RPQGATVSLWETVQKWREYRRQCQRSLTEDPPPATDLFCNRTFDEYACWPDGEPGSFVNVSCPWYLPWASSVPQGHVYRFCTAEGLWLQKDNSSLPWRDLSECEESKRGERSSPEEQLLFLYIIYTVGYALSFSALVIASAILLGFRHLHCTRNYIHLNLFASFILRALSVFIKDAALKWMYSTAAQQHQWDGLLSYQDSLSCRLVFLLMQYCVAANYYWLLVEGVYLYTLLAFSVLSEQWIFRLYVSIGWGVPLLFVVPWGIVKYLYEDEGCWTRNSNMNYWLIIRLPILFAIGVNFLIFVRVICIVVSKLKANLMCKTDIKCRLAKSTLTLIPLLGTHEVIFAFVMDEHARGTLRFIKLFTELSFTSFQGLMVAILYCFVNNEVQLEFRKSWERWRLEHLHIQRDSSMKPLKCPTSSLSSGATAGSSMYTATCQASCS

Consider `C[C@H]1c2nc(OCc3c(F)cc(Cl)cc3F)c(C(F)F)cc2CCN1Cc1nc2ccc(C(=O)O)cc2n1C[C@@H]1CCO1` [Compound I-060], for which the Emax came out at 105% and the pEC50 was 9.83.
In the same order, the values of `C[C@H]1c2nc(OCc3c(F)cc(F)cc3F)c(C(F)F)cc2CCN1Cc1nc2ccc(C(=O)O)cc2n1C[C@@H]1CCO1` [Compound I-061] are 101% and 9.53.
In the same order, the values of `C[C@H]1c2nc(OCc3cc(F)c(Cl)cc3F)c(C(F)F)cc2CCN1Cc1nc2ccc(C(=O)O)cc2n1C[C@@H]1CCO1` [Compound I-062] are 99.3% and 9.67.
In the same order, the values of `C[C@H]1c2nc(OCc3ccc(C#N)cc3F)c(C(F)F)cc2CCN1Cc1nc2ccc(C(=O)O)cc2n1C[C@@H]1CCO1` [Compound I-063] are 92.3% and 9.71.
`C[C@H]1c2nc(OCc3ccc(Cl)cc3F)c(C(F)(F)F)cc2CCN1Cc1nc2c(-c3ccn(C)n3)cc(C(=O)O)cc2n1C[C@@H]1CCO1` [Compound I-064]: the Emax was determined as 102% and the pEC50 was 9.46.
In the same order, the values of `COc1cc(C(=O)O)cc2c1nc(CN1CCc3cc(Cl)c(OCc4ccc(Cl)cn4)nc3[C@@H]1C)n2C[C@@H]1CCO1` [Compound I-065] are 104% and 10.09.
On to `COc1cc(C(=O)O)cc2c1nc(CN1CCc3cc(Cl)c(OCc4ccc(Cl)cc4)nc3[C@@H]1C)n2C[C@@H]1CCO1` [Compound I-066], for which the Emax is 106% and the pEC50 was 10.43.
As for `COc1cc(C(=O)O)cc2c1nc(CN1CCc3cc(Cl)c(OCc4ccc(C)cc4)nc3[C@@H]1C)n2C[C@@H]1CCO1` [Compound I-067], the maximum response (Emax) was found to be 98.3% and the negative logarithm of the EC50 (pEC50) is 10.22.
Turning to `COc1cc(C(=O)O)cc2c1nc(CN1CCc3cc(Cl)c(OCc4ccccc4Cl)nc3[C@@H]1C)n2C[C@@H]1CCO1` [Compound I-068], the Emax came out at 112% and the pEC50 was 9.71.
The corresponding values for `COc1cc(C(=O)O)cc2c1nc(CN1CCc3cc(Cl)c(OCc4ccc(F)cc4F)nc3[C@@H]1C)n2C[C@@H]1CCO1` [Compound I-069] are 109% and 10.37.
The corresponding values for `COc1cc(C(=O)O)cc2c1nc(CN1CCc3cc(Cl)c(OCc4ccc(Cl)cc4Cl)nc3[C@@H]1C)n2C[C@@H]1CCO1` [Compound I-070] are 105% and 10.73.
In the same order, the values of `COc1cc(C(=O)O)cc2c1nc(CN1CCc3cc(Cl)c(OCc4ccc(OC(F)F)cc4F)nc3[C@@H]1C)n2C[C@@H]1CCO1` [Compound I-071] are 110% and 10.17.
Take `COc1cc(C(=O)O)cc2c1nc(CN1CCc3cc(Cl)c(OCc4cc(F)c(Cl)cc4F)nc3[C@@H]1C)n2C[C@@H]1CCO1` [Compound I-072]: the maximum response (Emax) turned out to be 106% and the pEC50 is 10.56.
In the same order, the values of `COc1cc(C(=O)O)cc2c1nc(CN1CCc3cc(Cl)c(OCc4ccc(F)cc4)nc3[C@@H]1C)n2C[C@@H]1CCO1` [Compound I-073] are 101% and 10.18.
In the same order, the values of `COc1cc(C(=O)O)cc2c1nc(CN1CCc3cc(Cl)c(OCc4c(F)cc(Cl)cc4F)cc3[C@@H]1C)n2C[C@@H]1CCO1` [Compound I-074] are 104% and 10.63.
The corresponding values for `COc1cc(C(=O)O)cc2c1nc(CN1CCc3cc(Cl)c(OCc4c(F)cc(F)cc4F)nc3[C@@H]1C)n2C[C@@H]1CCO1` [Compound I-075] are 118% and 10.31.
Take `COc1cc(C(=O)O)cc2c1nc(CN1CCc3cc(Cl)c(OCc4ccc(Cl)cc4F)nc3[C@@H]1C)n2C[C@@H]1CCO1` [Compound I-076]: the Emax amounted to 122% and the pEC50 is 10.68.
The corresponding values for `O=C(O)c1ccc2nc(CC3CCc4cc(C(F)(F)F)c(OCc5ccc(Cl)cc5F)cc4C3)n(C[C@@H]3CCO3)c2c1` (stereo partly drawn) [Compound I-077] are 92.3% and 8.13.
In the case of `CC1c2nc(OCc3ccc(Cl)cc3F)ncc2CCN1Cc1nc2ccc(C(=O)O)cc2n1C[C@@H]1CCO1` (stereo partly drawn) [Compound I-078], the Emax turned out to be 96% and the negative logarithm of the EC50 (pEC50) is 7.83.
The corresponding values for `C[C@@H]1c2nc(OCc3ccc(Cl)cc3F)ncc2CCN1Cc1nc2ccc(C(=O)O)cc2n1C[C@@H]1CCO1` [Compound I-079] are 75.7% and 6.05.
The corresponding values for `C[C@H]1c2nc(OCc3ccc(Cl)cc3F)ncc2CCN1Cc1nc2ccc(C(=O)O)cc2n1C[C@@H]1CCO1` [Compound I-080] are 88.3% and 8.03.
In the case of `C[C@H]1c2nc(OCc3ccc(Cl)cn3)c(Cl)cc2CCN1Cc1nc2c(F)cc(C(=O)O)cc2n1C[C@@H]1CCO1` [Compound I-081], the Emax was determined as 96.7% and the pEC50 is 9.75.
On to `C[C@H]1c2nc(OCc3ccc(Cl)cc3)c(Cl)cc2CCN1Cc1nc2c(F)cc(C(=O)O)cc2n1C[C@@H]1CCO1` [Compound I-082], for which the maximum response (Emax) was determined as 100% and the pEC50 is 10.07.
The corresponding values for `C[C@H]1c2nc(OCc3ccc(F)cc3F)c(Cl)cc2CCN1Cc1nc2c(F)cc(C(=O)O)cc2n1C[C@@H]1CCO1` [Compound I-083] are 116% and 9.91.
In the same order, the values of `C[C@H]1c2nc(OCc3ccc(Cl)cc3Cl)c(Cl)cc2CCN1Cc1nc2c(F)cc(C(=O)O)cc2n1C[C@@H]1CCO1` [Compound I-084] are 94.7% and 10.23.
The corresponding values for `C[C@H]1c2nc(OCc3ccc(C#N)cc3F)c(Cl)cc2CCN1Cc1nc2c(F)cc(C(=O)O)cc2n1C[C@@H]1CCO1` [Compound I-086] are 101% and 10.16.
Turning to `C[C@H]1c2nc(OCc3ccc(F)cc3)c(Cl)cc2CCN1Cc1nc2c(F)cc(C(=O)O)cc2n1C[C@@H]1CCO1` [Compound I-087], the Emax worked out at 103% and the pEC50 was 9.61.
In the same order, the values of `C[C@H]1c2nc(OCc3c(F)cc(Cl)cc3F)c(Cl)cc2CCN1Cc1nc2c(F)cc(C(=O)O)cc2n1C[C@@H]1CCO1` [Compound I-088] are 103% and 10.06.
The corresponding values for `C[C@H]1c2nc(OCc3ccc(Cl)cc3F)c(Cl)cc2CCN1Cc1nc2c(F)cc(C(=O)O)cc2n1C[C@@H]1CCO1` [Compound I-089] are 106% and 10.13.
On to `C[C@H]1c2c(cc(Cl)c3c2OC(C)(c2ccc(Cl)cc2F)O3)CCN1Cc1nc2ccc(C(=O)O)cc2n1C[C@@H]1CCO1` (stereo partly drawn) [Compound I-090], for which the Emax was 98% and the pEC50 is 8.69.
In the same order, the values of `C[C@H]1c2c(ccc3c2OC(C)(c2ccc(Cl)cc2F)O3)CCN1Cc1nc2ccc(C(=O)O)cc2n1C[C@@H]1CCO1` (stereo partly drawn) [Compound I-091] are 91.7% and 8.58.
The corresponding values for `C[C@H]1c2c(cc(Cl)c3c2OC(C)(c2ccc(Cl)cn2)O3)CCN1Cc1nc2ccc(C(=O)O)cc2n1C[C@@H]1CCO1` (stereo partly drawn) [Compound I-092] are 108% and 8.80.
In the same order, the values of `C[C@H]1c2c(ccc3c2OC(C)(c2ccc(Cl)cn2)O3)CCN1Cc1nc2ccc(C(=O)O)cc2n1C[C@@H]1CCO1` (stereo partly drawn) [Compound I-093] are 96.3% and 8.20.
With `C[C@H]1c2nc(NCc3ccc(Cl)cc3F)c(C(F)(F)F)cc2CCN1Cc1nc2ccc(C(=O)O)cc2n1C[C@@H]1CCO1` [Compound I-094], the Emax came out at 103% and the negative-log EC50 (pEC50) is 9.59.
For `C[C@H]1c2nc(CCc3ccc(Cl)cc3)c(C(F)(F)F)cc2CCN1Cc1nc2ccc(C(=O)O)cc2n1C[C@@H]1CCO1` [Compound I-095], the Emax was 102% and the negative-log EC50 (pEC50) is 9.15.
In the same order, the values of `C[C@H]1c2nc(SCc3ccc(Cl)cc3F)c(C(F)(F)F)cc2CCN1Cc1nc2ccc(C(=O)O)cc2n1C[C@@H]1CCO1` [Compound I-096] are 103% and 9.61.
The corresponding values for `C[C@H]1c2nc(OCc3ccc(Cl)cc3F)c(C(F)F)cc2CCN1Cc1nc2ccc(C(=O)O)nc2n1C[C@@H]1CCO1` [Compound I-097] are 109% and 9.46.
In the same order, the values of `Cc1ccc(COc2nc3c(cc2C(F)F)CCN(Cc2nc4ccc(C(=O)O)nc4n2C[C@@H]2CCO2)[C@H]3C)cc1` [Compound I-098] are 118% and 8.94.
Regarding `C[C@H]1c2nc(OCc3ccccc3Cl)c(C(F)F)cc2CCN1Cc1nc2ccc(C(=O)O)nc2n1C[C@@H]1CCO1` [Compound I-099], the Emax was determined as 106% and the negative-log EC50 (pEC50) is 8.59.
